Results reported in PMC12259270, “Sensory neuron–expressed FGF13 controls nociceptive signaling in diabetic neuropathy models” (The Journal of Clinical Investigation, 2025).
Residues, ends and D or L forms follow the SMILES beside them. *: point of attachment. Cbz = O=C(OCc1ccccc1)*; OtBu = CC(C)(C)O*

Tests used:
[1] = system: Na+ currents in hIPSC-derived sensory neurons (RealDRG); assay: Whole-cell voltage clamp, hIPSC-derived sensory neurons (RealDRG) with Nav1.8 blocker A-803467; type: cell-based, human; details: for Long-term inactivation, 2nd Pulse / Long-term inactivation, 3rd Pulse / Long-term inactivation, 4th Pulse / Activation / Peak Density / Steady-State inactivation / Tau (τ): RealDRG
Procedure: (§1) Next, we conducted whole-cell patch-clamp electrophysiological recordings in hIPSC-derived sensory neurons under three conditions: unstimulated and treated with 0.07% ethanol (capsaicin vehicle), treated with capsaicin (100 nM, 10 minutes), and treated with capsaicin plus SB-366791 (10 μM), a selective TRPV1 inhibitor. Each group was exposed to either vehicle (0.01% DMSO) or PW164 (50 μM), with all recordings performed in the presence of the Nav1.8 blocker A-803467 (300 nM) ([41]). The experimental groups are color coded in Figure 2A. Capsaicin caused potentiation of INa (Figure 2A) and induced hyperpolarizing shifts in the V1/2 of activation (Figure 2B) and SSI (Figure 2C). […] Next, we investigated whether silencing FGF13 could replicate PW164’s effects and prevent additional activity of the compound. hIPSC-derived sensory neurons were transfected with a previously validated pAAV-shFGF13-GFP construct ([42]) (Supplemental Figure 8). […] Neither PW164 nor FGF13 silencing affected Na+ currents in neurons transfected with pAAV-shCTRL-GFP or pAAV-shFGF13-GFP, whether unstimulated or treated with capsaicin in the presence of ProTx II (Supplemental Figure 9 and Supplemental Table 6). Thus, PW164 selectively modulated FGF13-dependent Na^+ current sensitization via TRPV1, with FGF13 silencing mimicking and validating PW164’s effect. […]
(§2) Whole-cell patch clamp electrophysiology
(§3) HEK293-Nav1.7 cells, HEK293 stably expressing human Nav1.6 (HEK-Nav1.6), HEK293 stably expressing human Nav1.5 (HEK-Nav1.5), human hIPSC-derived sensory neurons (RealDRGTM from Anatomic Incorporated 1020F1-1M) and donor-derived DRG neurons were plated at low density on glass coverslips and processed for whole-cell patch clamp electrophysiology in voltage-clamp and/or current clamp mode. Whole-cell patch electrophysiological experiments were conducted following previously published studies (26). Current densities were obtained by dividing INa amplitude by membrane capacitance. Current –voltage relationships were generated by plotting current density as a function of the […]. Conductance (G Na) was calculated by the […]
(§4) where INa is the current amplitude at voltage Vm, and Erev is the Na+ reversal potential.
(§5) Activation curves were derived by plotting normalized GNa as a function of test potential and fitted using […]
(§6) Where GNa,Max is the maximum conductance, Va is the membrane potential of half-maximal activation, Em is the membrane voltage and k is the slope factor. For steady -state inactivation, normalized current amplitude (INa/INa,Max) at the test potential was plotted as a function of prepulse potential (Vm) and fitted using the […]
(§7) Where Vh is the potential of half-maximal inactivation, E m is the membrane voltage, and k is the slope factor.
(§8) Transient INa inactivation decay was estimated with the standard exponential equation. Inactivation time constant (tau, τ) was fitted with the following equation: […]
(§9) where I(t) is the amplitude of the current at time t and Iss is the steady-state current during a single voltage-step.
(§10) The goodness of fitting was determined by correlation coefficient (R), and the cutoff of R was set at 0.85. To observe effects on long-term inactivation (LTI), a four-step protocol was employed during which cells were subjected to four 0 mV, 20 ms depolarization pulses separated by −90 mV, 40 ms recovery intervals. To control for various cell sizes, the current densities were calculated by dividing INa peak current amplitude/membrane capacitance (Cm). To represent the fraction of channels entering into LTI, the peak INa observed during depolarization cycles 2-4 was normalized to the peak INa observed during depolarization cycle 1 (INa/INa,Cycle 1) and plotted as a function of the depolarization cycle.
(§11) The cumulative (frequency-dependent) use-dependency was determined by applying 20 pulses with a depolarization to −10 mV (50 ms duration) and 50 ms recovery intervals with a train of 20 pulses at 10 Hz from a holding potential at -70 mV. […]

[2] = system: Na+ currents in hIPSC-derived sensory neurons (RealDRG); assay: Whole-cell voltage clamp, hIPSC-derived sensory neurons (RealDRG) with Nav1.7 blocker ProTx-II; type: cell-based, human
Procedure: as §1, §2, §3, §4, §5, §6, §7, §8, §9, §10, §11

[3] = + A-803467, AAV-FGF13 + PW164, no capsaicin
[4] = + A-803467, Cap + Control + PW164
[5] = + A-803467, Cap+ AAV-FGF13 PW164
[6] = + A-803467, Cap+ ShFGF13 + PW164
[7] = + A-803467, Cap- Control (pAAV-shCTRL-GFP) + PW164
[8] = + A-803467, Cap- Control + PW164
[9] = + A-803467, Cap- ShFGF13 + PW164
[10] = + Nav1.8 blocker A-803467, Cap+ - PW164
[11] = + Nav1.8 blocker A-803467, Cap+ PW164
[12] = + Nav1.8 blocker A-803467, Cap+ SB-366791 - PW164
[13] = + Nav1.8 blocker A-803467, Cap+ SB-366791 PW164
[14] = + Nav1.8 blocker A-803467, Naïve + PW164
[15] = + Nav1.8 blocker A-803467, Naïve - PW164
[16] = RealDRG, + Nav1.7 blocker ProTx-II, Cap+ - PW164
[17] = RealDRG, + Nav1.7 blocker ProTx-II, Cap+ PW164
[18] = RealDRG, + Nav1.7 blocker ProTx-II, Naïve + PW164
[19] = RealDRG, + Nav1.7 blocker ProTx-II, Naïve - PW164

COC(=O)[C@@H](NC(=O)[C@H](CCC(=O)OC(C)(C)C)NC(=O)[C@H](CC(C)C)NC(=O)[C@@H]1CCCN1C(=O)OCc1ccccc1)C(C)C [PW164] (Cbz-PLE(OtBu)V-OMe)
effect on capsaicin-induced Na+ current phenotypes ([1]; PW164 50 μM, 30–60 minutes, capsaicin 100 nM, except LTI): reversed capsaicin-induced phenotypes | effect on Na+ currents without sensitization ([1]; PW164 50 μM, unstimulated control, or SB-366791, or ProTx II): no significant alterations | Long-term inactivation, 2nd Pulse ([1]; + A-803467, AAV FGF13 + PW64): −68.4 ± 7.1 % maximal Na+ current | Long-term inactivation, 3rd Pulse ([1]; + A-803467, AAV FGF13 + PW64): −61.9 ± 7.5 % maximal Na+ current | Long-term inactivation, 4th Pulse ([1]; + A-803467, AAV FGF13 + PW64): −58.5 ± 8.3 % maximal Na+ current | Activation [1, 3]: −24.3 ± 0.8 mV | Peak Density [1, 3]: −114.3 ± 5.6 pA/pF | Steady-State inactivation [1, 3]: −75.65 ± 1.6 mV | Tau (τ) [1, 3]: 1.65 ± 0.14 ms | Activation [1, 4]: −21.92 ± 0.87 mV | Long-term inactivation, 2nd Pulse [1, 4]: −59.86 ± 2.37 % maximal Na+ current | Long-term inactivation, 3rd Pulse [1, 4]: −49.84 ± 2.93 % maximal Na+ current | Long-term inactivation, 4th Pulse [1, 4]: −46.98 ± 3.3 % maximal Na+ current | Peak Density [1, 4]: −92.79 ± 7.96 pA/pF | Steady-State inactivation [1, 4]: −58.11 ± 1.04 mV | Tau (τ) [1, 4]: 1.42 ± 0.09 ms | Activation [1, 5]: −27.8 ± 0.81 mV | Peak Density [1, 5]: −91.7 ± 10.3 pA/pF | Steady-State inactivation [1, 5]: −73.36 ± 1.4 mV | Tau (τ) [1, 5]: 1.63 ± 0.22 ms | Activation ([1]; + A-803467, Cap+ AAV-GFP PW164): −28.39 ± 0.59 mV | Peak Density ([1]; + A-803467, Cap+ AAV-GFP PW164): −87.62 ± 9.5 pA/pF | Steady-State inactivation ([1]; + A-803467, Cap+ AAV-GFP PW164): −75.15 ± 1.69 mV | Tau (τ) ([1]; + A-803467, Cap+ AAV-GFP PW164): 2.0 ± 0.32 ms | Long-term inactivation, 2nd Pulse ([1]; + A-803467, Cap+ GFP PW164): −53.56 ± 4.9 % maximal Na+ current | Long-term inactivation, 3rd Pulse ([1]; + A-803467, Cap+ GFP PW164): −54.96 ± 3.6 % maximal Na+ current | Long-term inactivation, 4th Pulse ([1]; + A-803467, Cap+ GFP PW164): −54.22 ± 4.3 % maximal Na+ current | Activation [1, 6]: −32.72 ± 1.59 mV | Long-term inactivation, 2nd Pulse [1, 6]: −74.3 ± 3.96 % maximal Na+ current | Long-term inactivation, 3rd Pulse [1, 6]: −68.4 ± 5.4 % maximal Na+ current | Long-term inactivation, 4th Pulse [1, 6]: −67.2 ± 5.2 % maximal Na+ current | Peak Density [1, 6]: −76.49 ± 4.86 pA/pF | Steady-State inactivation [1, 6]: −67.68 ± 1.53 mV | Tau (τ) [1, 6]: 1.38 ± 0.10 ms | Long-term inactivation, 2nd Pulse ([1]; + A-803467, Cap+ hFGF13 PW164): −55.4 ± 2.7 % maximal Na+ current | Long-term inactivation, 3rd Pulse ([1]; + A-803467, Cap+ hFGF13 PW164): −52.0 ± 3.7 % maximal Na+ current | Long-term inactivation, 4th Pulse ([1]; + A-803467, Cap+ hFGF13 PW164): −45.4 ± 3.1 % maximal Na+ current | Activation [1, 7]: −25.74 ± 1.14 mV | Peak Density [1, 7]: −111.31 ± 11.73 pA/pF | Steady-State inactivation [1, 7]: −60.96±1.53 mV | Tau (τ) [1, 7]: 1.18 ± 0.09 ms | Long-term inactivation, 2nd Pulse [1, 8]: −86.72 ± 2.2 % maximal Na+ current | Long-term inactivation, 3rd Pulse [1, 8]: −82.89 ± 3.3 % maximal Na+ current | Long-term inactivation, 4th Pulse [1, 8]: −81.6 ± 3.6 % maximal Na+ current | Activation [1, 9]: −29.77 ± 1.74 mV | Long-term inactivation, 2nd Pulse [1, 9]: −82.82 ± 2.85 % maximal Na+ current | Long-term inactivation, 3rd Pulse [1, 9]: −81.52 ± 3.86 % maximal Na+ current | Long-term inactivation, 4th Pulse [1, 9]: −81.16 ± 4.06 % maximal Na+ current | Peak Density [1, 9]: −96.02 ± 8.94 pA/pF | Steady-State inactivation [1, 9]: −64.99 ± 1.30 mV | Tau (τ) [1, 9]: 0.98 ± 0.09 ms | Activation [1, 10]: −27.51 ± 1.22 mV | Peak Density [1, 10]: −71.9 ± 9.4 pA/pF | Steady-State inactivation [1, 10]: −74.71 ± 1.43 mV | Tau (τ) [1, 10]: 1.39 ± 0.09 ms | Long-term inactivation, 2nd Pulse [1, 11]: −45.59 ± 3.33 % maximal Na+ current | Long-term inactivation, 3rd Pulse [1, 11]: −38.18 ± 2.61 % maximal Na+ current | Long-term inactivation, 4th Pulse [1, 11]: −32.17 ± 4.29 % maximal Na+ current | Activation [1, 12]: −30.7 ± 0.53 mV | Peak Density [1, 12]: −95.2 ± 9.9 pA/pF | Steady-State inactivation [1, 12]: −73.56 ± 1.33 mV | Tau (τ) [1, 12]: 1.52 ± 0.11 ms | Long-term inactivation, 2nd Pulse [1, 13]: −54.94 ± 3.35 % maximal Na+ current | Long-term inactivation, 3rd Pulse [1, 13]: −47.15 ± 2.81 % maximal Na+ current | Long-term inactivation, 4th Pulse [1, 13]: −45.57 ± 4.0 % maximal Na+ current | Long-term inactivation, 2nd Pulse [1, 14]: −74.84 ± 5.46 % maximal Na+ current | Long-term inactivation, 3rd Pulse [1, 14]: −67.02 ± 3.43 % maximal Na+ current | Long-term inactivation, 4th Pulse [1, 14]: −65.63 ± 4.22 % maximal Na+ current | Activation [1, 15]: −30.27 ± 0.75 mV | Peak Density [1, 15]: −84.1 ± 5.9 pA/pF | Steady-State inactivation [1, 15]: −75.11 ± 0.78 mV | Tau (τ) [1, 15]: 0.98 ± 0.09 ms | effect on INa potentiation by FGF13 overexpression ([1]; pAAV-FGF13-GFP neurons, PW164 50 μM): fully attenuated | effect on capsaicin-potentiated Na+ currents with ProTx-II ([2]; ProTx-II 10 nM, Suppl Fig 7): does not have any effect | Activation [2, 16]: −29.15 ± 0.86 mV | Peak Density [2, 16]: −80.16 ± 8.05 pA/pF | Steady-State inactivation [2, 16]: −61.95 ± 1.29 mV | Tau (τ) [2, 16]: 0.98 ± 0.08 ms | Long-term inactivation, 2nd Pulse [2, 17]: −118.43 ± 3.81 % maximal Na+ current | Long-term inactivation, 3rd Pulse [2, 17]: −120.42 ± 4.69 % maximal Na+ current | Long-term inactivation, 2nd Pulse [2, 18]: −105.72 ± 2.72 % maximal Na+ current | Long-term inactivation, 3rd Pulse [2, 18]: −110.76 ± 2.72 % maximal Na+ current | Long-term inactivation, 4th Pulse [2, 18]: −113.94 ± 3.54 % maximal Na+ current | Activation [2, 19]: −29.68 ± 1.17 mV | Peak Density [2, 19]: −76.99 ± 6.01 pA/pF | Steady-State inactivation [2, 19]: −61.23 ± 1.29 mV | Tau (τ) [2, 19]: 0.87 ± 0.04 ms
